Key:
Format in all cases: cell-based, human
MMP-1 = assay: Inhibition of MMP-1 gene expression in UVA-damaged cells (real-time PCR); details: UVA-irradiated CCD-1064Sk, 24 hours, concentration 1 µg/mℓ; UVA alone 100.0, control group 50.5
Protocol: Human dermal fibroblasts (CCD-1064Sk, ATCC® CRL-2076™) were inoculated into a 60-mm dish using IMDM (Welgene, Korea) and cultured for 24 hours, followed by UVA irradiation. Afterwards, the medium was replaced with fresh serum-free IMDM, and samples were each treated at different concentrations and cultured for 24 hours at 37° C. in a 5 % CO2 incubator. After removal of the medium, the cells were collected by using QIAzol™ Lysis Reagent (Qiagen), and RNA thereof was isolated according to the protocol of the manufacturer. After quantifying the isolated RNA, cDNA was synthesized with 1 µg of RNA, followed by Real-time PCR (Applied Biosystems, 7500 FAST Real-Time PCR System).

collagen type I = assay: Gene expression of collagen type I (real-time PCR); details: CCD-1064Sk, 24 hours, concentration 100 µg/mℓ; control group 100.0
Protocol: After removal of the medium, the cells were collected by using QIAzol™ Lysis Reagent (Qiagen), and RNA thereof was isolated according to the protocol of the manufacturer. After quantifying the isolated RNA, cDNA was synthesized with 1 µg of RNA, followed by Real-time PCR (Applied Biosystems, 7500 FAST Real-Time PCR System).

collagen type III = assay: Gene expression of collagen type III (real-time PCR); details: CCD-1064Sk, 24 hours, concentration 100 µg/mℓ; control group 100.0
Protocol: Human dermal fibroblasts (CCD-1064Sk, ATCC® CRL-2076™) were inoculated into a 60 mm dish using IMDM (Welgene, Korea), cultured for 24 hours, and then replaced with fresh serum-free IMDM. […] After removal of the medium, the cells were collected by using QIAzol™ Lysis Reagent (Qiagen), and RNA thereof was isolated according to the protocol of the manufacturer. After quantifying the isolated RNA, cDNA was synthesized with 1 µg of RNA, followed by Real-time PCR (Applied Biosystems, 7500 FAST Real-Time PCR System).

| SMILES | Mean (gene expression of MMP-1) (MMP-1) | Mean (gene expression of collagen type I) (collagen type I) | Mean (gene expression of collagen type III) (collagen type III) |
| --- | --- | --- | --- |
| O=C(O[C@@H]1Cc2c(O)cc(O)cc2O[C@@H]1c1cc(O)c(O)c(O)c1)c1cc(O)c(O)c(O)c1 [EGCG] | 56.7 | – | – |
| O=C1O[C@H]([C@@H](O)CO)C(O)=C1O [Vitamin C, vitamin C] | – | 134.2 | 135.6 |
